# Experiments:
# BCCL rats = assay: Contextual fear conditioning in bilateral common carotid artery ligated rats (in vivo model for vascular dementia); design: species or system rat; conditions: 3 and 10 mg/kg, p.o., 60 min post dose, FIG. 5
# From the text: Contextual Fear Conditioning (In Vivo Model for Vascular Dementia): Male Wistar rats of age 2-3 months were used. Rats were induced vascular dementia by surgical procedure, which involves bilateral common carotid artery ligation (BCCL). Briefly, rats were anaesthetized using 2-5% isoflurane gaseous anesthesia. A dorsal incision was made near the neck region and two bilateral common carotid arteries were exposed. Both the arteries were separated from their sheaths and vagal nerves, and permanently ligated using 4-0 silk sutures. Sham animals were subjected to surgery except for ligation. After an induction period of 14 days, rats were examined in fear conditioning task. On day 1, rats were placed in the behavioral chamber and allowed to acclimatize for 1 min. Post acclimatization rats received a conditioned stimulus (CS) (tone for 10 sec) followed by an unavoidable foot shock (unconditioned stimulus (US): electric shock of 0.4 mA for 1 sec). Following a 40 sec interval between each administration, tone and shock were repeated to deliver a total of six CS-US pairings. […] After post dose interval of 60 min, animals were scored for the duration of freezing without shock stimulus. Shocking and scoring was controlled by Freeze frame software.
# Aged rats = assay: Morris water maze task in aged rats (in vivo model for senile dementia); design: species or system rat; conditions: 10 mg/kg, p.o.
# Protocol: Morris Water Maze Task (In Vivo Model for Senile Dementia): The water maze apparatus consisted of a circular pool (1.8 m diameter, 0.6 m high) constructed in black perspex (TSE, systems, Germany) filled with water (24° C.). The maze was positioned underneath a wide-angled video camera. A 16 cm diameter perspex platform, lying 1 cm below the water surface, was placed in the center of one of the four imaginary quadrants, which remained constant for all rats. The maze offered no intra-maze cues to guide the escape behavior, however, the training room offered several strong extra maze visual cues to aid escape learning. An automated tracking system (Videomot 2 (5.51), TSE systems, Germany) was employed to track animal and record the parameters. […] Aged rats (˜80 weeks old) were placed facing the wall of the maze and lowered gently, feet first into water. Rats were allowed to swim for 60 seconds to find the platform. If the platform was found during this time, the trial was stopped and rat was allowed to stay on platform for 10 seconds before being removed from the maze. If the platform was not found during the 60 seconds trial, rat was guided to the platform and allowed to stay on platform for 10 seconds before being removed from the maze. The rats were taken off the platform ensuring that the rat see the investigator's hand from the front before removal. They were dried gently with a towel. Each rat received 4 trials in a day. The maze has 8 starting points. On the first, third and fifth day the animals started from 1st, 3rd, 5th and 7th starting point and on the second and fourth day the animals started from 2nd, 4th, 6th and […]. […] Retention of the task was assessed on 10th day, during which each animal received a single 30 seconds probe trial. […] Latency to reach the platform (s), swim speed (cm/s) and path length (cm) were recorded during acquisition trials. Percentage time spent in target quadrant (quadrant in which platform was placed during acquisition training) and swim speed (cm/s) were recorded for the probe trial.
# Male Wistar rats = assay: Object recognition task in doxorubicin-treated rats (in vivo model for chemotherapy-induced cognitive impairment); design: species or system rat; conditions: DOX 2.5 mg/kg, i.p. treated male Wistar rats; SUVN-502 1 and 10 mg/kg, p.o.; FIG. 6
# Protocol: Male Wistar rats (230-280 g) were used as experimental animals. Four animals were housed in each cage. Rats were acclimatized for 7 days (Days 1-7) to the laboratory conditions. Chemotherapy-induced cognitive impairment was induced by injecting doxorubicin (DOX) at 2.5 mg/kg, i.p. once in every 5 days up to 8 cycles (days 8-49). […] On experimental day 50, following 60 min of formulation dosing, animals were habituated to the arenas for 45 min. On day 51, animals were treated with their respective formulations 60 min prior to the familiarization trial (T1) during which rats was presented with two similar objects i.e., silver Milton flasks (a1 and a2) for 3 min. After an interval of 30 min, rats were subjected to choice trial (T2), with one familiar (silver, a3) and one novel (red, b) object for a period of 3 min. During the T1 and T2 trials, exploration time of each object (defined as sniffing, licking, chewing or having moving vibrissae whilst directing the nose towards the object at a distance of less than 1 cm) were recorded separately by hand held stop watch. • Reference: Behavioural Brain Research, 1988, 31, 47-59.
# CD1 mice = assay: Resident intruder task (in vivo model for aggression due to dementia); design: species or system mouse; conditions: 1, 3 and 10 mg/kg, p.o., 60 minutes prior to the trial, FIG. 4
# Protocol: Resident Intruder Task (In Vivo Model for Aggression Due to Dementia): Male CD1 mice of weight 20-35 g (Resident), 15-25 g (Intruder) and ovariectomized female mice (20-25 g) were used. Resident mice were habituated individually with ovariectomized female mice in each cage. β-estradiol at a dose of 0.2 mg/kg, s.c. was administered to female mice during habituation. Intruders were habituated socially for 1 week. On day 1 and day 2, intruder was exposed to resident mice in resident's home cage for a period of 10 minutes and duration of attack was recorded. During this exposure period, female mice were removed from the cage. On day 4, animals were randomized based on their duration of attack and respective treatments were administered. […] After post dose interval, resident mice were exposed to same intruder for 10 min and duration of attack was recorded.
# [1] = system: ovariectomized female Wistar rats; assay: Object recognition task in ovariectomized rats (in vivo model for dementia due to menopause); design: species or system rat; conditions: SUVN-502 1, 3 and 10 mg/kg, p.o. one hour prior to evaluation, FIGS. 1 and 2
# Protocol: Object Recognition Task (In Vivo Model for Dementia Due to Menopause) Bilateral ovariectomy surgery was carried out in 7-8 weeks old female rats. Briefly, animals were anesthetized using Avertin (2,2,2-tri bromo ethanol) at 150 mg/kg, i.p. and were lay down on the surgery table. A midline incision was given on the dorsal region below the rib cage and 1 cm lateral to the either side of midline, a small incision was given on fascia to locate the adipose fat supporting the ovaries. By slowly pulling out the fat tissue, the ovary is identified and excised following the uterine horn ligation with silk sutures. Fascia was also covered with sutures and the similar procedure was repeated on the other side. Superficial skin layers were sutured and gentamicin (15 mg/kg, s.c.) was given as antibiotic and meloxicam (1 mg/kg, i.m.) as analgesic with povidone iodine applied on superficial skin layers at last. Episodic memory which is a memory of autobiographical events contextual in relation to time, place etc. was assessed 4 weeks after the surgery using object recognition task. Object recognition task was carried out using black circular arenas (50 cm height×50 cm diameter) made of PVC laminates. […] Discriminative index was calculated as ratio of time spent exploring the novel object divided by sum of time spent exploring the novel object and familiar object in choice trial.
SMILES,memory (duration of freezing) (BCCL rats),"path length versus vehicle treated group (Aged rats; aged rats (~80 weeks old), acquisition days 3, 4 and 5, p<0.05, p<0.01)","target latency versus vehicle treated group (Aged rats; aged rats, days 3, 4 and 5, statistically significant (p<0.05, p<0.01) only on day 3 and 5)","time in the target quadrant during the probe trial versus vehicle (Aged rats; aged rats, probe trial on 10th day, p<0.05)","novel object recognition (exploration time, novel versus familiar object) (Male Wistar rats)",aggression levels (duration of attack) (CD1 mice),effect on object memory deficits [1]
"COc1ccc2c(c1)c(CN1CCN(C)CC1)cn2S(=O)(=O)c1ccccc1Br [SUVN-502, 1-[(2-Bromophenyl)sulfonyl]-5-methoxy-3-[(4-methyl-1-piperazinyl)methyl]-1H-indole dimesylate monohydrate]",improved the memory,significantly lesser,also lesser,more time in the target quadrant,increased novel object recognition,decreased the aggression levels,reversed the object memory deficits
"COc1cc2c(cc1OC)C(=O)C(CC1CCN(Cc3ccccc3)CC1)C2 (centres unmarked) [donepezil, reference compound]",–,–,–,–,–,–,did not reverse the object memory deficits

# From patent US20210338661A1, “NEW USES OF A PURE 5-HT 6 RECEPTOR ANTAGONIST” (SUVEN LIFE SCIENCES LIMITED, priority 2017, published 2021)
